What was measured:
Format in all cases: cell-based, human
[1] = system: MCF‐7 cells; test: Sideward Scatter (SSC, cell granularity), MCF‐7; conditions: MCF‐7, 20 μM of 4, 72 h
Experimental: (§1) Flow cytometry. For gaining better insights into the mechanisms of action of the ruthenium complexes, MCF‐7 and LN229 cells incubated with an IC50 dose of 3 or 4, were analyzed via flow cytometry. Several staining protocols were carried out in parallel, in independent experiments: i) AnnV/PI for the detection of apoptotic cell death, ii) AO for the detection of acidic vacuoles, iii) ApoStat for checking caspase activation, iv) CFSE for detecting interference with cellular proliferation, and v) DAPI for the detection of morphological signs of apoptosis. Untreated cells or cells treated only with BSA (control) were also measured, as reference for BSA‐free and BSA‐containing drug formulations, respectively. […] Channels FL1 (green emission), FL2 (orange emission) and/or FL3 (dark red emission) were used for fluorescence detection, according to the specific staining agent. Sideward Scatter (SSC) for MCF‐7 cells treated with 4 or BSA−4 was also analyzed, with respect to the control, for detection of shifts of cell granularity. […]
Figure S16. […] Respective controls, i.e. untreated cells or cells treated only with BSA, were also measured for comparison. […]
Figure S17. […] Respective controls, i.e. untreated cells or cells treated only with BSA, were also measured for comparison.
Sideward Scatter is proportional to cell granularity and was determined via flow cytometry. […]

[2] = system: LN229 cells; test: AO staining (acidic vesicles), LN229; conditions: LN229, IC50 dose, 72 h, compared with cells treated with an IC50 dose of 3
Experimental: as §1
(§2) Staining Protocols for Flow Cytometric Analysis. […] Finally, cells were washed in PBS, resuspended in PBS (or AnnV‐binding buffer for AnnV/PI), and analysed. […] Cells were then washed, trypsinised, dissolved in PBS and analysed by CyFlow® Space Partec using the PartecFloMax® software (Partec GmbH, Münster, Germany). […]

[3] = system: LN229 cells; test: CFSE staining, flow cytometry, LN229; conditions: LN229, 40 μM, 72 h
Experimental: as §1, §2

[4] = system: MCF‐7 cells; test: CV viability of MCF‐7 exposed to 3 together with autophagy inhibitors; conditions: MCF‐7, 3 together with CQ or 3‐MA (0.5 mM), 72 h, CV assay
Experimental: Colorimetric assays for cellular viability. […] Cells were then washed with tap water, dried in air, and the CV dye was dissolved in 33 % (w/v) acetic acid solution. […] The dye was then discarded, and the formed formazan (purple) was dissolved in DMSO. The absorbance was measured with an automated microplate reader at λmax 540 nm, with the reference λmax 670 nm. Untreated cells or cells treated only with BSA (control) were also measured, as reference for BSA‐free and BSA‐containing drug formulations, respectively. […] Cell viability is expressed as percentage (%) relative to control (untreated cultures).58 Experiments were run in three independent replicates. […] Non‐linear regression analyses of the obtained results was done using GraphPad Prism software to calculate IC50 values. page 17: Figure S15. […] MA, 0.5 mM) for 72 h, from CV assay. Data are expressed as indicated above for Figure S11. * indicates statistically significant (p < 0.05) values, with respect to the control, # with respect to cells treated with 3. S16 (1 picture or pasted object on this page, not shown here)

| Substance | cell granularity (SSC) [1] | number of acidic vesicles (AO staining) [2] | cellular proliferation (CFSE staining) [3] | cell viability on co‐treatment with an inhibitor of autophagy [4] |
| --- | --- | --- | --- | --- |
| closo ‐[3‐(η^6‐p‐Cymene)‐1‐(quinolin‐8‐yl‐acetate)‐3,1,2‐RuC2B9H10] [Compound 4] | enhanced granularity | significantly lower | strong inhibition of cellular proliferation | – |
| closo‐ [Compound 3, closo‐ [3‐(η^6‐p‐Cymene)‐1‐(CH2COOH)‐3,1,2‐RuC2B9H10]] | – | – | – | restoration of cellular viability |

Source: article PMC6973020, “Quinoline‐Conjugated Ruthenacarboranes: Toward Hybrid Drugs with a Dual Mode of Action” (Chemmedchem, 2019)
